Results on eight compounds are retold here after patent publication US20230105212A1, “BIPHENYL DERIVATIVE INHIBITOR, PREPARATION METHOD THEREFOR AND USE THEREOF” (SHANGHAI HANSOH BIOMEDICAL CO., LTD., priority 2020, published 2023).

Assay [1] addresses T1, human PD-1/PD-L1 binding (Homo sapiens, UniProt Q9NZQ7).
T1 construct: PD-L1-His protein (19 to 238 amino acids) (Abcam #ab167713); purchased Abcam (PD-L1-His); R&D (PD-1-Fc) ab167713; 1086-PD
Description: Inhibition of human PD-1/PD-L1 binding (TR-FRET/HTRF). As to conditions: TR-FRET, PD-L1-His and PD-1-Fc; read-out: PD-1/PD-L1 binding IC50. In a few lines: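 PD-L1-His (aa 19–238, diluted to 10 nM) and PD-1-Fc (aa 25–167, diluted to 20 nM) incubated with compounds (10 μM or 1 μM top, 3-fold, 11 doses) 60 min at room temperature, then anti-6HIS Eu cryptate/anti-human IgG-XL665 added for 3 h RT or overnight 4 °C. HTRF 665/620 nm ratio gave inhibition and IC50.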

The target in assay [2] is T2, human PD-L1 protein (Homo sapiens, UniProt Q9NZQ7).
T2 construct: purchased Acro Biosystems PD1-H5229
Description: Thermal shift: melting temperature of PD-L1 protein. The assay is classed as binding. As to conditions: compound 10 μM, PD-L1 protein 2 μM, Tm minus DMSO vehicle control; read-out: ΔTm (° C.). In a few lines: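 Human PD-L1 at 2 μM final was tested in […], 150 mM NaCl with SYPRO Orange, heated 25→95 °C at 0.03 °C/s in a PCR melt-curve run. Tm was taken per treatment; ΔTm is the shift relative to DMSO vehicle.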

Assay [3] has as its system NFAT-luc2/PD1 Jurkat cells. Description: In vitro cytotoxicity on NFAT-luc2/PD1 Jurkat cells (CellTiter-Glo). In kind it is cell-based. To be noted: 72 hours; for IC50: Homo sapiens, Jurkat. The procedure: (§1) Test Embodiment 5. In Vitro Cytotoxicity of the Compounds of the Present Disclosure on NFAT-Luc2/PD1 Jurkat Cells and MC38-hPDL1 Cells
(§2) Experimental purpose: To test the in vitro cytotoxicity of compounds on NFAT-luc2/PD1 Jurkat cells and MC38-hPDL1 cells.
(§3) When the cells were cultured to an appropriate degree of confluency, the cells were collected, and the cells was adjusted in an appropriate cell concentration by complete medium, then the cell suspension was plated in a 96-well plate, 90 μL per well, and put in a 37° C., 5% CO2 incubator overnight; compound solutions of different concentrations were prepared by DMSO and medium, and a vehicle control was set; compound solutions were added to a 96-well plate, 10 μL per well, and put in a 37° C., 5% CO2 incubator and cultured for 72 hours. After that, CellTiter-Glo solution was added, the mixture was shaken and mixed evenly, incubated in the dark for 10 minutes, and a BioTek Synergy H1 microplate reader was used for reading.
(§4) Luminescence signal value was used to calculate the inhibition rate, and the concentration and inhibition rate were fitted by nonlinear regression curve using Graphpad Prism software to obtain IC50 values, as shown in the following table: […]
Background: In ATP-based viability assays light output follows the ATP content of the culture.

Assay [4] deals with MC38-hPDL1 cells. Description: In vitro cytotoxicity on MC38-hPDL1 cells (CellTiter-Glo). The assay is classed as cell-based, mouse. As to conditions: for MC38-hPDL1 inhibition rate (%): 72 hours; for IC50: Mus musculus, MC38-hPD-L1, 72 hours. As to the method:
as §1, §2, §3, §4

In assay [5] the target is T3, PD-L1 protein on the surface of MC38-hPDL1 tumor cells (Homo sapiens, UniProt Q9NZQ7).
T3 construct: expressed in transfected cells; host or cells: MC38-hPDL1 (mouse colon cancer cells)
Description: Induction of endocytosis of PD-L1 on the surface of tumor cells (flow cytometry). In kind it is cell-based. To be noted: 16 hours incubation; for Emax: MC38-hPDL1 cells, read-out: MC38 maximum endocytosis rate; for IC50: inducing endocytosis of PD-L1, MC38-hPDL1 cells, read-out: MC38 IC50. In outline:
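IC50 comes from nonlinear fits of endocytosis rate, calculated from the loss of surface PE-anti-CD274 flow signal relative to vehicle. Cells were MC38 mouse colon cancer cells engineered to express high human PD-L1. Compound exposure lasted 16 h at 37 °C, 5% CO2.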
On the technique in general: A flow cytometer gives signals particle by particle.

Assay [6] deals with CHO-PDL1/Jurkat-PD1 cell pathway. Description: Inhibition of CHO-PDL1/Jurkat-PD1 cell pathway (NFAT luciferase reporter). The assay is classed as cell-based. The procedure: Test Embodiment 3. Inhibitory Effect of the Compounds of the Present Disclosure on CHO-PDL1/Jurkat-PD1 Cell Pathway
Experimental purpose: The purpose of this test embodiment was to test the inhibitory effect of compounds on the CHO-PDL1/Jurkat-PD1 cell pathway.
Experimental method: Two stably transfected cell lines were included in this experiment, CHO-K1 cells stably transfected with PD-L1 and Jurkat cells stably transfected with PD-1 and NFAT luciferase reporter genes. Compounds were incubated with the two cell lines. Then, due to the inhibitory effect on the PD-1/PD-L1 pathway, the activation degree of Jurkat cells changed, so that the level of the reporter gene NFAT in the downstream of Jurkat cells changed, and the level of NFAT was characterized by detecting the signal value of luciferase, so that the inhibitory effect of the test compound on CHO-PDL1/Jurkat-PD1 pathway was characterized.
CHO-PDL1 cells (Promega, #J1252) were cultured to a suitable cell density. After digestion, the cells were resuspended by complete medium to become a suitable density of cell suspension. The cell suspension was plated 100 μL per well on a 96-well plate (Corning, #3610), and placed in a 37° C., 5% CO2 incubator and incubated overnight, and assay medium (RPMI 1640+2% FBS, RPMI 1640 Cat. No.: Gibco, #22400089, FBS Cat. No.: Gibco, #10091148) was used to prepare compound solutions of different concentrations. NFAT-luc2/PD1 Jurkat cells (Promega, #J1252) were collected and resuspended to the appropriate cell density using assay medium. The supernatant of the CHO-PDL1 cell culture plate was aspirated, and 40 μL of the prepared compound solution and 40 μL of resuspended NFAT-luc2/PD1 Jurkat cells were added, and incubated in a 5% CO2 incubator at 37° C. for 6 hours, and the cell plate was taken out, then 40 μL of One-Glo reagent (Promega, #E6120) was added to each well, shaked and mixed well, incubated in the dark at room temperature for 10 minutes, then put into a microplate reader and the luminescence program was used to read the luminescence value of the cell plate.
The EC50 value was fitted according to the compound concentration and the luminescence signal value, and the maximum induction fold of each compound relative to the signal value of the non-dosed group was calculated, as shown in Table 3.

T3 sequence (Q9NZQ7 19-290): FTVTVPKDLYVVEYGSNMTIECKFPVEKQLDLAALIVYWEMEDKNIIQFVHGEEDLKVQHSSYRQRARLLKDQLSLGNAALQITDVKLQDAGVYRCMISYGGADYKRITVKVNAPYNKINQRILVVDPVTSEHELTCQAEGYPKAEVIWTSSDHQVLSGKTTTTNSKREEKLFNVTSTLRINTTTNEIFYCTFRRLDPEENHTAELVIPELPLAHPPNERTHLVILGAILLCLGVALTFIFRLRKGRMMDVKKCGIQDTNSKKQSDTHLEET
T2 sequence (Q9NZQ7 19-238 limits assumed): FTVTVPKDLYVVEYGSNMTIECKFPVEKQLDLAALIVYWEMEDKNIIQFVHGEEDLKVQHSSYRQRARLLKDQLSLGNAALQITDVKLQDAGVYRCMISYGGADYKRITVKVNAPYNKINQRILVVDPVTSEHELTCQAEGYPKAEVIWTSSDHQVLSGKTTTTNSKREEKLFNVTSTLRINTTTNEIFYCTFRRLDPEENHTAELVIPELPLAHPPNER
T1 sequence (Q9NZQ7 19-238): as the sequence (Q9NZQ7 19-238 limits assumed) above

Consider `COc1cc(C(=O)Nc2cccc(-c3cccc(NC(=O)c4nc5c(n4C)CCN(C)C5)c3Cl)c2C)ncc1CNC1(C(=O)O)COC1` [Embodiment 102, 3-(((6-((2′-Chloro-3′-(1,5-dimethyl-4,5,6,7-tetrahydro-1H-imidazo[4,5-c]pyridine-2-carboxamido)-2-methyl-[1,1′-biphenyl]-3-yl)carbamoyl)-4-methoxypyridin-3-yl)methyl)amino)oxetane-3-carboxylic Acid], for which the IC50 in assay [1] amounted to 1 nM. Moreover, in assay [2], the ΔTm (in general, the change in melting temperature against a reference sample) at 10 µM turned out to be 10.8 °C. For the same compound, in assay [3], the “Jurkat-PD1 inhibition rate (%)” value is −12.0% ^ and the IC50 was over 10000 nM. Moreover, in assay [4], the “MC38-hPDL1 inhibition rate (%)” value is reported as −6.7%^ and the IC50 was over 10000 nM.

Regarding `COc1nc(-c2cccc(-c3cccc(NC(=O)c4nc5c(n4C)CCN(C)C5)c3Cl)c2C)ccc1CNC1COC1` [Embodiment 112, N-(2-Chloro-3′-(6-methoxy-5-((oxetan-3-ylamino)methyl)pyridin-2-yl)-2′-methyl-[1,1′-biphenyl]-3-yl)-1,5-dimethyl-4,5,6,7-tetrahydro-1H-imidazo[4,5-c]pyridine-2-carboxamide], the IC50 in assay [1] is 9.4 nM. In assay [5], the Emax came out at 87% and the IC50 came to 11 nM. Also, the ΔTm at 10 µM in assay [2] was found to be 12 °C. Moreover, in assay [3], the “Jurkat-PD1 inhibition rate (%)” value came out at 57.0%^ and the IC50 amounted to 8630 nM. Besides, in assay [4], the “MC38-hPDL1 inhibition rate (%)” value is 13.0%^ and the IC50 is over 10000 nM.

Regarding `COc1nc(-c2cccc(-c3cccc(NC(=O)c4nc5c(n4C)CCN(C)C5)c3Cl)c2Cl)cnc1CN1CC(F)C1` [Embodiment 217, N-(2,2′-Dichloro-3′-(5-((3-fluoroazetidin-1-yl)methyl)-6-methoxypyrazin-2-yl)-[1,1′-biphenyl]-3-yl)-1,5-dimethyl-4,5,6,7-tetrahydro-1H-imidazo[4,5-c]pyridine-2-carboxamide], in assay [5], the Emax turned out to be 96% and the IC50 turned out to be 1.4 nM. Moreover, the ΔTm at 10 µM in assay [2] came out at 13 °C. Further, in assay [3], the “Jurkat-PD1 inhibition rate (%)” value was 79% and the IC50 was 5370 nM. In addition, in assay [4], the “MC38-hPDL1 inhibition rate (%)” value is on record as 67% and the IC50 is 7150 nM.

`COc1cc(C(=O)Nc2cccc(-c3cccc(NC(=O)c4nc5c(n4C)CCN(C)C5)c3Cl)c2C)ncc1CN[C@@H]1CCOC[C@@H]1F` [Embodiment 30, N-(2-Chloro-3′-(5-((((3R,4R)-3-fluorotetrahydro-2H-pyran-4-yl)amino)methyl)-4-methoxypicolinamido)-2′-methyl-[1,1′-biphenyl]-3-yl)-1,5-dimethyl-4,5,6,7-tetrahydro-1H-imidazo[4,5-c]pyridine-2-carboxamide]: the IC50 in assay [1] was determined as 5.7 nM. In assay [5], the Emax is 94% and the IC50 stood at 3.7 nM. For the same compound, in assay [2], the ΔTm at 10 µM came out at 11.2 °C. In assay [3], the “Jurkat-PD1 inhibition rate (%)” value turned out to be 99.0%^ and the IC50 was found to be 2950 nM. Also, in assay [4], the “MC38-hPDL1 inhibition rate (%)” value was determined as 4.0% and the IC50 was over 10000 nM.

For `COc1nc(-c2cccc(-c3cccc(NC(=O)c4nc5c(n4C)CCN(C)C5)c3Cl)c2Cl)ccc1CN1CC(CO)C1` [Embodiment 215, N-(2,2′-Dichloro-3′-(5-((3-(hydroxymethyl)azetidin-1-yl)methyl)-6-methoxypyridin-2-yl)-[1,1′-biphenyl]-3-yl)-1,5-dimethyl-4,5,6,7-tetrahydro-1H-imidazo[4,5-c]pyridine-2-carboxamide], the IC50 in assay [1] was determined as 5 nM. The Emax in assay [5] was determined as 96%. In addition, in assay [2], the ΔTm at 10 µM turned out to be 17.3 °C. Besides, in assay [3], the “Jurkat-PD1 inhibition rate (%)” value was found to be 85% and the IC50 worked out at 4320 nM. In assay [4], the “MC38-hPDL1 inhibition rate (%)” value came to 51% and the IC50 was 9340 nM.

In the case of `COc1nc(-c2cccc(-c3cccc(NC(=O)c4nc5c(n4C)CCN(C)C5)c3Cl)c2Cl)ncc1CN1CC2(C1)CN(C(C)=O)C2` [Embodiment 222, N-(3′-(5-((6-Acetyl-2,6-diazaspiro[3.3]heptan-2-yl)methyl)-4-methoxypyrimidin-2-yl)-2,2′-dichloro-[1,1′-biphenyl]-3-yl)-1,5-dimethyl-4,5,6,7-tetrahydro-1H-imidazo[4,5-c]pyridine-2-carboxamide], in assay [1], the IC50 amounted to 5.2 nM. Moreover, in assay [5], the Emax came out at 92%. In assay [3], the “Jurkat-PD1 inhibition rate (%)” value was 36% and the IC50 is over 10000 nM. Further, in assay [4], the “MC38-hPDL1 inhibition rate (%)” value turned out to be 0% and the IC50 is over 10000 nM.

As to `COc1cc(-c2cccc(-c3cccc(NC(=O)c4nc5c(n4C)CCN(C)C5)c3Cl)c2Cl)ccc1CNCC(=O)O` [Embodiment 159, ((2′,2″-Dichloro-3″-(1,5-dimethyl-4,5,6,7-tetrahydro-1H-imidazo[4,5-c]pyridine-2-carboxamido)-3-methoxy-[1,1′:3′,1″-terphenyl]-4-yl)methyl)glycine], the IC50 in assay [1] was 2.2 nM; in assay [3] it was over 10000 nM; in assay [4], over 10000 nM. Besides, the concentration for a half-maximal effect (EC50) (usually the concentration needed to bring the measured effect to its halfway point) in assay [6] (6 hours incubation, luciferase signal) is 45 nM. Moreover, in assay [6] (relative to the signal value of the non-dosed group, read-out: Maximum induction fold), the maximal fold induction came out at 3.2. Besides, the “Jurkat-PD1 inhibition rate (%)” value in assay [3] is 24%. In addition, the “MC38-hPDL1 inhibition rate (%)” value in assay [4] is reported as 5%.

As for `COc1nc(-c2cccc(-c3cccc(NC(=O)c4nc5c(n4C)CCN(C)C5)c3Cl)c2Cl)ncc1CN1CC(NC(C)=O)C1` [Embodiment 224, N-(3′-(5-((3-Acetylaminoazetidin-1-yl)methyl)-4-methoxypyrimidin-2-yl)-2,2′-dichloro-[1,1′-biphenyl]-3-yl)-1,5-dimethyl-4,5,6,7-tetrahydro-1H-imidazo[4,5-c]pyridine-2-carboxamide], the IC50 in assay [1] turned out to be 4 nM. In addition, the Emax in assay [5] came to 90%. Further, the ΔTm at 10 µM in assay [2] was determined as 11.3 °C. In assay [3], the “Jurkat-PD1 inhibition rate (%)” value is 48% and the IC50 was found to be 9500 nM. In addition, in assay [4], the “MC38-hPDL1 inhibition rate (%)” value is 1% and the IC50 is over 10000 nM.
